Laboratory results published in PMC8452690, “Structural basis for small molecule targeting of Doublecortin Like Kinase 1 with DCLK1-IN-1” (Communications Biology, 2021).
“And” between values parts separate entries of the source, which are not always exact repeats. Equal values may be shown once. Read-outs that look alike come from different tables or passages of the source. Marks after values point to notes of the source that are not given here.

Experiments:
[1] = biological target: T1, DCLK1-FL1Δ WT tubulin polymerisation activity (Homo sapiens, UniProt O15075); assay: Tubulin polymerisation and pelleting assay with DCLK1-FL1Δ WT; format: biochemical; settings: 20 and 40 μM (Supplementary Fig. 10c)
T1 construct: DCLK1-FL1Δ (residues 50-686); 8XHis tag with TEV protease cleavage site (N); made in house; host or cells: Escherichia coli C41(DE3)
T1 sequence (O15075 50-686 isoform O15075-2): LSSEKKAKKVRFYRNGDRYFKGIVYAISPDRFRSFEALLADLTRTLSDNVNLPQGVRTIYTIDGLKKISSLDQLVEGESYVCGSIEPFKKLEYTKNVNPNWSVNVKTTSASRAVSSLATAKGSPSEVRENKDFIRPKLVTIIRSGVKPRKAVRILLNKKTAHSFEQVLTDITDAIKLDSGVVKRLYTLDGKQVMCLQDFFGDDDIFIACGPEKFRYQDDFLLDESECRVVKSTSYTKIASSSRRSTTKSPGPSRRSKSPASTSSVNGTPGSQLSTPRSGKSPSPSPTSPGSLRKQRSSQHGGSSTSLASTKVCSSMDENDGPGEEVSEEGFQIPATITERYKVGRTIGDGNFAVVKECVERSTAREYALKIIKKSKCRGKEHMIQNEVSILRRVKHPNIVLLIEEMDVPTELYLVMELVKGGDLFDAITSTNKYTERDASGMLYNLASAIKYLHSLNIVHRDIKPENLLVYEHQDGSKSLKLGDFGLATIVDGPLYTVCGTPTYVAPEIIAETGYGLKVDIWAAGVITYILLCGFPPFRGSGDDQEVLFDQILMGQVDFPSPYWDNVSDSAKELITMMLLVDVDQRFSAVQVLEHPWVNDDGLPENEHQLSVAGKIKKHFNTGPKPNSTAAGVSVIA
Protocol: Tubulin polymerisation assays were performed in buffer containing 80 mM PIPES at pH 6.9, 2.0 mM MgCl2, 0.5 mM EGTA, 2.5 mM β,γ-Methyleneguanosine 5’-triphosphate, and 10 μM tubulin and 5 μM DCLK1 for 1 h at 37 °C. For tubulin polymerisation in the presence of inhibitors, various concentrations of the inhibitors were first incubated with DCLK1 and allowed to stand on ice for 5 min before adding this mix to the tubulin polymerisation reaction. Following the tubulin polymerisation, the reaction mix was pelleted at 20,000 g for 20 min and the supernatant and the pellet fractions were run on a 12% SDS gel. The data shown are representative of two independent experiments.

[2] = biological target: T2, DCLK1-KD (residues 372-649) (Homo sapiens, UniProt O15075); assay: Thermal shift stability assay, DCLK1-KD; format: binding; settings: compound titration 2.5 to 40 μM
T2 construct: the DCLK1 kinase domain (DCLK1-KD; residues 372-649) by carrying out thermal stability assays; 8XHis tag with TEV protease cleavage site (N); made in house; host or cells: Escherichia coli C41(DE3)
T2 sequence (O15075 372-649 isoform O15075-2): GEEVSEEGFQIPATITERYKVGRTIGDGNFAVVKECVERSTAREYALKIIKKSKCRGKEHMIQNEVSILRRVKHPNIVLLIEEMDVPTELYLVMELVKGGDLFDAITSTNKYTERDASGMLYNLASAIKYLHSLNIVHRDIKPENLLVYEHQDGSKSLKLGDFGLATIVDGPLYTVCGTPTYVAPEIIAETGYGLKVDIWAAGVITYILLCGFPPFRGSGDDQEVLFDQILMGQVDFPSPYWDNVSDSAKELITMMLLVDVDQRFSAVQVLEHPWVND
Protocol: (§1) DCLK1 proteins were diluted in 150 mM NaCl, 20 mM Tris pH 8.0, 1 mM DTT to […] final concentration and assayed with the appropriate concentration of inhibitor in a total reaction volume of 25 μL. SYPRO Orange (Molecular Probes) was used as a fluorescence probe and detected at 530 nm. The data shown are representative of two independent experiments.

DCLK1-FL1Δ D511N = biological target: T3, DCLK1-FL1Δ D511N (Homo sapiens, UniProt O15075, D511N); assay: Thermal shift stability assay, DCLK1-FL1Δ D511N; format: binding; settings: D511N mutant, 2.5-40 μM
T3 construct: DCLK1-FL1Δ (residues 50-686); 8XHis tag with TEV protease cleavage site (N); made in house; host or cells: Escherichia coli C41(DE3)
T3 sequence (O15075 50-686 D511N): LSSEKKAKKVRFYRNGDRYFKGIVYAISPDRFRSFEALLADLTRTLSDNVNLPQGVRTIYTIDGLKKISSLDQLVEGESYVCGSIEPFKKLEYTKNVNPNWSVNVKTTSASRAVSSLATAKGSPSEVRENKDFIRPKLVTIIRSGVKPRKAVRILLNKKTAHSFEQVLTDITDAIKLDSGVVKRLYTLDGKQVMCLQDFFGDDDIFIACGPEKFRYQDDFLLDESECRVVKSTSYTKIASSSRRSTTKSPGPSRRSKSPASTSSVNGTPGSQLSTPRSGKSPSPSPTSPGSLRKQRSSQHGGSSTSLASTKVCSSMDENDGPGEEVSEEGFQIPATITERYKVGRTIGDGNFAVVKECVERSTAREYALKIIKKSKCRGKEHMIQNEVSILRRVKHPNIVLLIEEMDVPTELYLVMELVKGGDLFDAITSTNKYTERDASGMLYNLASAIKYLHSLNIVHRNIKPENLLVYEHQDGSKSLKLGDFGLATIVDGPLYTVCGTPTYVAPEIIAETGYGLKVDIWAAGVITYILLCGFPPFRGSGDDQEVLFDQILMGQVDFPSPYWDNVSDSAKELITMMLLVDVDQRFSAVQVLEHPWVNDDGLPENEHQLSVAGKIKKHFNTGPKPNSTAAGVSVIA
Protocol: as §1

DCLK1-FL1Δ WT [3] = biological target: T4, DCLK1-FL1Δ WT (Homo sapiens, UniProt O15075); assay: Thermal shift stability assay, DCLK1-FL1Δ WT; format: binding; settings: phosphorylated WT, 2.5-40 μM
T4 sequence (O15075 50-686 isoform O15075-2): T1 sequence (O15075 50-686 isoform O15075-2)
Protocol: as §1

DCLK1-FL1Δ WT [4] = biological target: T4, DCLK1-FL1Δ WT; assay: SPR binding to immobilised DCLK1-FL1Δ WT (phosphorylated); settings: for Kd: SPR, 18 °C, DCLK1 FL1Δ WT immobilised, mean ± SEM
Protocol: SPR studies were carried out on a Biacore 2000 instrument (Cytivia). Proteins were immobilised at 25 °C using standard amine coupling to a CM5 chip (Cytivia) in immobilisation buffer consisting of 10 mM HEPES pH 7.4, 150 mM NaCl, 1 mM TCEP, 0.005% Tween P20, 1% (v/v) DMSO. To the active flow, cells were coupled either DCLK1-FL1Δ D511N or WT to a final density of approximately 7000 RU, followed by surface deactivation with 1 M ethanolamine. For each protein, coupling was performed at a concentration of 2 µM protein in 10 mM sodium acetate buffer pH 4.0, 1% (v/v) DMSO final, in the presence 10 µM of the moderate affinity compound FMF-03-149-01 (IC50 ~400 nM)[28] to help to stabilise the kinase domain during immobilsiation at low pH. A blank immobilisation was performed on the reference flow cell.
Binding experiments were performed at 18 °C in running buffer consisting of 20 mM HEPES, pH 7.4, 150 mM NaCl, 1 mM tris(2-carboxyethyl)phosphine (TCEP), 0.005% (v/v) Tween-P20, and 2% (v/v) DMSO. Compounds (10 mM stocks in 100% DMSO) were diluted in DMSO to 500 µM (DCLK1-NEG) or 25 µM (all other compounds) then in running buffer (without DMSO) to achieve the starting concentration with a final DMSO concentration of 2% (v/v). Samples were then serially titrated in running buffer containing 2% (v/v) DMSO to prepare each final concentration series (seven-point, three-fold serial dilution, 10 µM−13.7 nM for DCLK1-NEG, or 500−0.68 nM for all other compounds). Solutions were injected in multi-cycle format (in duplicate) without regeneration (contact time 80 s, flow rate 75 μL/min, dissociation time 600 s), with an extra wash (50% DMSO) after each injection.
Steady-state/kinetic binding data were fitted using the S200 BIAevaluation software (GE Healthcare). Sensorgrams from reference surfaces and blank injections were subtracted from the raw data (double-referencing), followed by solvent correction. Kinetic rate constants (kon and koff values) were obtained by fitting to 1:1 Langmuir binding model. Reported binding data represent mean ± SEM for three or four independent experiments. The dissociative half-life life (t1/2) for each inhibitor complex with DCLK1 was calculated from the fitted dissociation rate constant (koff), according to the equation 1 (t1/2 = ln(2)/koff.)

DCLK1-KD = biological target: DCLK1-KD; set-up: method as in PMID 32251410; settings: read-out: KD by ITC; cited from earlier work

- restoration of DCLK1-FL1Δ WT tubulin polymerisation activity [1]: did not restore
- binding by shift in melting temperature (ΔTm) [2]: bind DCLK1-KD
- melting temperature change versus control compound DCLK1-NEG (DCLK1-FL1Δ D511N): increased
- melting temperature change versus control compound DCLK1-NEG (DCLK1-FL1Δ WT [3]): increased
- kon, kinetic fitting (DCLK1-FL1Δ WT [4]): 6 ± 2 1/Ms (x 10^5)
- Kd (DCLK1-FL1Δ WT [4]; read-out: KD, kinetic fitting (1:1 binding model)): 83 ± 22 nM
- Kd (DCLK1-FL1Δ WT [4]; read-out: KD, steady state fitting): 145 ± 35 nM
- koff (DCLK1-FL1Δ WT [4]; read-out: koff, kinetic fitting): 0.04 ± 0.01 s⁻¹
Structure (SMILES): COc1cc(N2CCN(C)CC2)ccc1Nc1ncc2c(n1)N(C)c1ccccc1C(=O)N2CC(F)(F)F [DCLK1-IN-1]
- Kd (DCLK1-KD): 55 nM and 109 nM
